In patent EP0572662B1, “SILVER HALIDE PHOTOGRAPHIC MATERIAL” (FUJI PHOTO FILM CO., LTD., priority 1991, dated 1993):

Experiment: Speed of silver telluride formation in a silver halide emulsion (Kubelka-Munk reflectivity test)
Assay type: physicochemical
Details: octahedral silver bromide emulsion, 50°C, pH 6.3, pAg 8.3, telluride 1 × 10^-3 mol/mol Ag, reflectivity at 520 nm
Protocol: The speed with which silver telluride is formed in the silver halide emulsion can be determined by the following test.
When a tellurium sensitizer is added in a great amount (e.g., 1 × 10^-3 mol/mol Ag), the silver telluride formed absorbs light beam of the visible region. […] 181 (1966) and ibid., Vol. 16, p. 102 (1968) can be applied for sulfur sensitizers. Therefore, the relative speed at which silver telluride is formed can easily be obtained by the same method as used in determining the amount of silver sulfide formed in a silver halide emulsion from the infinite reflectivity of the emulsion to visible light beams (520 nm) in accordance the Kubelka-Munk formula. […]
An emulsion which contains octahedral silver bromide grains having an average size of 0.5 µm (containing 0.75 mol of AgBr and 80 g of gelatin per kilogram) is maintained at 50°C, while holding pH and pAg at 6.3 and 8.3, respectively. […] Then, the reflectivity (R) of the emulsion to light beams of 520 nm is detected at times by means of a spectrophotometer having an integrating sphere, using the reflectivity of a blank emulsion as reference. Every reflectivity, thus detected, is substituted in the Kubelka-Munk formula, (1-R)^2/2R. The time spend until the value of (1-R)^2/2R becomes 0.01 is measured. The pseudo-first-order reaction rate constant k (min-1) is determined from the time thus measured. […]

SMILES	pseudo-first-order reaction rate constant k [min⁻¹]
CC(C)CP(=[Te])(CC(C)C)CC(C)C [Compound 7, ((i)C4H9)3P = Te]	~0.004
CC(C)P(=[Te])(C(C)C)C(C)C [Compound 4, ((i)C3H7)3P = Te]	~7e-05
